Laboratory results: patent US11583542B2, “Compositions of bile acids and phenylbutyrate compounds” (Amylyx Pharmaceuticals Inc., priority 2019, dated 2023)

Columns and labels:
Type in all cases: physicochemical
[1] = Bulk density, tapped density, Hausner ratio and Carr's index; settings: powder; calculated from bulk and tapped density
Experimental: Bulk density was calculated for each API and blend by gently pouring powder into a 25 mL graduated cylinder. Tapped density was calculated using a tapped volumeter to compact each powder using 100-tap increments until volume change was <5%. Hausner ratio and Carr's index were then calculated using bulk density and tapped density. Formulation C was selected based on flow characteristics. Carr's index, in addition to being a measure of compressibility, may also be used to determine the flow properties of a material. […] Acceptable flow property (as determined by the packaging equipment used) was a minimum of a Carr's index of under 25, with a Carr's index of below 20 being preferable.
Each API was blended and roller compacted with excipients separately to determine if the proximity of the dual APIs in the blend or granules was responsible for agglomeration. The resulting granules were then recombined and blended before filling test sachets. Bulk and tapped densities of each blend were measured prior to roller compaction. For this experiment, all silica were used at 1% W/W. Aerosil 200 was used as a negative control while Syloid 244FP and Syloid 63FP were used to remove moisture from the APIs to determine if APIs would agglomerate with reduced local levels of water. […]

[2] = Forced degradation studies (thermal, thermal-humidity, light, oxidation, acid, base); settings: for degradation of API: API alone
Text: Each API and the final formulation (referred to as “AMX powder in sachet”) containing both APIs were also subjected to forced degradation studies. The study included stressing samples of PB (sodium phenylbutyrate) API, TURSO API, placebo, and AMX Powder in Sachet under thermal, thermal-humidity, light, oxidation, acid, or base conditions (Table 49).

[3] = Dynamic Vapor Sorption (DVS) testing
Text: Samples of NaPB, TURSO, and modified formulation C1 blend were subjected to DVS testing to determine the magnitude of weight gain due to humidity.

[4] = Loss on Drying (LOD) testing; settings: excipients
Experimental: After storage in sealed bottles for about one week, slight agglomeration of blends was observed.
LOD testing was performed on recovered agglomerated blend (PD2016-015-33B) after ˜2 hours of drying at 50° C. to determine the degree of moisture uptake. Results were compared against a non-agglomerated blend that had been stored in a sealed bottle (PD2016-015-29A).

[5] = Base 3 Days (1.0N NaOH, 50° C.)
[6] = Base 7 Days (1.0N NaOH, 50° C.)
[7] = Thermal-Humidity (85° C. + 1.0 mL water, 10 days)

## O=C(O)CCCc1ccccc1 [NaPB, sodium phenylbutyrate]
[1]
  Carr's index: 39.2
[2]; any of the forced degradation conditions studied
  degradation of API: did not degrade
[2]; Acid 3 Days (1.0N HCl, 50° C.)
  % PB / % (PB) Potency: 99.1%
  % PB remaining: 99.9%
  % RMBD (Relative Mass Balance Deficit), PB: 99.0%
  % Total RS / % Total PB Impurity: 1.18%
  Mass Balance / PB Sum: 100.28
[2]; Acid 7 Days (1.0N HCl, 50° C.)
  % PB / % (PB) Potency: 99.7%
  % PB remaining: 100.5%
  % RMBD (Relative Mass Balance Deficit), PB: 99.6%
  % Total RS / % Total PB Impurity: 1.14%
  Mass Balance / PB Sum: 100.84
[2]; [5]
  % PB remaining: 99.7%
  % RMBD (Relative Mass Balance Deficit), PB: 98.8%
  % Total RS / % Total PB Impurity: 1.11%
  Mass Balance / PB Sum: 100.01
[2]; [6]
  % PB / % (PB) Potency: 99.8%
  % PB remaining: 100.6%
  % RMBD (Relative Mass Balance Deficit), PB: 99.6%
  % Total RS / % Total PB Impurity: 1.10%
  Mass Balance / PB Sum: 100.90
[2]; Control
  % PB / % (PB) Potency: 99.2%
  % Total RS / % Total PB Impurity: 2.07%
  Mass Balance / PB Sum: 101.27
[2]; Light (1 × ICH condition)
  % PB / % (PB) Potency: 98.3%
  % PB remaining: 99.3%
  % RMBD (Relative Mass Balance Deficit), PB: 99.1%
  % Total RS / % Total PB Impurity: 0.74%
  Mass Balance / PB Sum: 99.04
[2]; Light Control
  % PB / % (PB) Potency: 99.0%
  % Total RS / % Total PB Impurity: 0.96%
  Mass Balance / PB Sum: 99.96
[2]; Oxidation (3% H2O2)
  % PB remaining: 99.4%
  % RMBD (Relative Mass Balance Deficit), PB: 100.5%
  % Total RS / % Total PB Impurity: 3.13%
  Mass Balance / PB Sum: 101.73
[2]; Thermal (85° C., 10 days)
  % PB / % (PB) Potency: 98.9%
  % PB remaining: 99.7%
  % RMBD (Relative Mass Balance Deficit), PB: 101.5%
  % Total RS / % Total PB Impurity: 3.93%
  Mass Balance / PB Sum: 102.83
[2]; [7]
  % PB / % (PB) Potency: 99.3%
  % PB remaining: 100.1%
  % RMBD (Relative Mass Balance Deficit), PB: 99.2%
  % Total RS / % Total PB Impurity: 1.16%
  Mass Balance / PB Sum: 100.48
[3]; above 45% RH
  DVS change in mass: massive fluctuations in mass
[3]; moisture uptake
  Fluctuations in mass: up to 50%

## C[C@H](CCC(=O)NCCS(=O)(=O)O)[C@H]1CC[C@H]2[C@@H]3[C@@H](O)C[C@@H]4C[C@H](O)CC[C@]4(C)[C@H]3CC[C@]12C [TUDCA API]
[2]; Acid 3 Days (1.0N HCl, 50° C.)
  % RMBD, TUDCA: 99.8%
  % TUDCA / % (TUDCA) Potency: 100.0%
  % TUDCA remaining: 99.8%
  % Total RS / % Total TUDCA Impurity: 0.23%
  Sum / TUDCA Sum: 100.23
[2]; Acid 7 Days (1.0N HCl, 50° C.)
  % RMBD, TUDCA: 97.0%
  % TUDCA / % (TUDCA) Potency: 97.2%
  % TUDCA remaining: 97.0%
  % Total RS / % Total TUDCA Impurity: 0.20%
  Sum / TUDCA Sum: 97.40
[2]; Acid: 10 mL of 1.0N HCl per sample for 3 days at 50° C.
  % Degradation Observed / Conclusion: No significant
[2]; [5]
  % RMBD, TUDCA: 94.9%
  % TUDCA / % (TUDCA) Potency: 95.1%
  % TUDCA remaining: 94.9%
  % Total RS / % Total TUDCA Impurity: 0.22%
  Sum / TUDCA Sum: 95.32
[2]; [6]
  % RMBD, TUDCA: 82.6%
  % TUDCA / % (TUDCA) Potency: 82.8%
  % TUDCA remaining: 82.6%
  % Total RS / % Total TUDCA Impurity: 0.18%
  Sum / TUDCA Sum: 82.98
[2]; Control
  % TUDCA / % (TUDCA) Potency: 100.2%
  % Total RS / % Total TUDCA Impurity: 0.22%
  Sum / TUDCA Sum: 100.42.
[2]; Light (1 × ICH condition)
  % RMBD, TUDCA: 103.2%
  % TUDCA / % (TUDCA) Potency: 99.5%
  % TUDCA remaining: 103.2%
  % Total RS / % Total TUDCA Impurity: 0.24%
  Sum / TUDCA Sum: 99.74
[2]; Light Control
  % TUDCA / % (TUDCA) Potency: 96.4%
  % Total RS / % Total TUDCA Impurity: 0.22%
  Sum / TUDCA Sum: 96.62
[2]; Light: 1 × ICH condition (White light NLT 1.2 million lux hours and UV light NLT 200 W hours/m^2)
  % Degradation Observed / Conclusion: No significant
[2]; Oxidation (3% H2O2)
  % RMBD, TUDCA: 98.8%
  % TUDCA / % (TUDCA) Potency: 97.1%
  % TUDCA remaining: 93.9%
  % Total RS / % Total TUDCA Impurity: 1.36%
  Sum / TUDCA Sum: 98.46
[2]; Oxidation: 10 mL of 3% H2O2 per sample
  % Degradation Observed / Conclusion: ~3%
[2]; Thermal (85° C., 10 days)
  % RMBD, TUDCA: 100.5%
  % TUDCA / % (TUDCA) Potency: 100.6%
  % TUDCA remaining: 100.4%
  % Total RS / % Total TUDCA Impurity: 0.28%
  Sum / TUDCA Sum: 100.88
[2]; [7]
  % RMBD, TUDCA: 0.0%
  % TUDCA remaining: 0%
  Sum / TUDCA Sum: 0.00
[2]; Thermal-Humidity: 85° C. + 1.0 mL water per sample for 10 days
  % Degradation Observed / Conclusion: Full degradation/
[2]; Thermal: 85° C. for 10 days
  % Degradation Observed / Conclusion: No significant

## C[C@H](CCC(=O)NCCS(=O)(=O)O)[C@H]1CC[C@H]2[C@@H]3[C@@H](O)C[C@@H]4C[C@H](O)CC[C@]4(C)[C@H]3CC[C@]12C [TURSO, tauroursodeoxycholic acid]
[1]
  Carr's index: 24.2
[2]; Thermal-Humidity condition
  degradation of API: no TURSO peak was detected
[2]; acidic condition, by Day 7
  degradation of API: degraded slightly
[2]; base condition, by Day 3
  degradation of API: degraded slightly
[2]; base condition, by Day 7
  degradation of API: ~17%
[2]; light condition
  degradation of API: did not degrade
[2]; oxidation condition, by Day 3
  degradation of API: degraded slightly
[2]; thermal condition
  degradation of API: did not degrade
[2]; Acid: 10 mL of 1.0N HCl per sample for 3 days at 50° C., listed as TURSO API
  % Degradation Observed / Conclusion: None
[2]; Acid: 10 mL of 1.0N HCl per sample for 7 days at 50° C.
  % Degradation Observed / Conclusion: ~3%
[2]; Base: 10 mL of 1.0N NaOH per sample for 3 days at 50° C.
  % Degradation Observed / Conclusion: ~5%
[2]; Base: 10 mL of 1.0N NaOH per sample for 7 days at 50° C.
  % Degradation Observed / Conclusion: ~17%
[2]; Light: 1 × ICH condition (White light NLT 1.2 million lux hours and UV light NLT 200 W hours/m^2), listed as TURSO API
  % Degradation Observed / Conclusion: None
[2]; Oxidation: 10 mL of 3% H2O2 per sample, listed as TURSO API
  % Degradation Observed / Conclusion: 3%
[2]; Thermal-Humidity: 85° C. + 1.0 mL water per sample for 10 days, listed as TURSO API
  % Degradation Observed / Conclusion: 100%
[2]; Thermal: 85° C. for 10 days, listed as TURSO API
  % Degradation Observed / Conclusion: None

## OC[C@@H](O)[C@@H](O)[C@H](O)[C@@H](O)CO [sorbitol]
[4]
  water uptake by loss-on-drying (LOD) testing: neither exhibited massive water uptake
